Data: the C3SDB collision cross section collection
Where “and” joins values, the source holds several entries; their conditions need not be identical. Identical values can stand only once.

Conditions: [M+H-H2O]+; instrument: TW; calibrated with polyalanine and drug standards

Going from `CNc1ccccc1C(=O)N1CCc2c([nH]c3ccccc23)C1=O` [RHETSININE] to `CC(C)=CCC/C(C)=C/CC/C(C)=C/CC/C(C)=C/CC/C(C)=C/CC/C(C)=C/CC/C(C)=C/CC/C(C)=C/CC/C(C)=C/CO` [SOLANESOL], the “collision cross section (N2)” value rises from 166.5 Å² to 256.8 Å².

Same assay, conditions: [M+H]+; instrument: TW; calibrated with polyalanine and drug standards

First: COc1ccc(-c2cc(=O)c3c(O)c(OC)c(O[C@@H]4O[C@H](CO[C@@H]5O[C@@H](C)[C@H](O)[C@@H](O)[C@H]5O)[C@@H](O)[C@H](O)[C@H]4O)cc3o2)cc1 [PECTOLINARIN]
Second: COc1ccc(-c2cc(=O)c3c(OC)c(OC)c(OC)cc3o2)cc1OC [SINENSETIN]
The “collision cross section (N2)” value of the first is higher: 236.5 Å² for the first, 186.4 Å² for the second.

First: N#Cc1ccc2c(c1)N(CCCN1CCC(O)CC1)c1ccccc1S2 [PERICIAZINE]
Second: Cc1nc2sccn2c(=O)c1CCN1CCC(=C(c2ccc(F)cc2)c2ccc(F)cc2)CC1 [RITANSERIN]
The “collision cross section (N2)” value of the first is lower: 186.6 Å² for the first, 220.7 Å² for the second.

Compared with `CO[C@H]1[C@H](O)[C@H](O[C@H]2CC[C@@]3(C=O)[C@H](CC[C@@H]4[C@@H]3CC[C@]3(C)[C@@H](C5=CC(=O)OC5)CC[C@]43O)C2)O[C@@H](C)[C@@H]1O` [PERUVOSIDE], `C[C@@H]1CC[C@@]2(OC1)O[C@H]1C[C@H]3[C@@H]4CC[C@@H]5C[C@@H](O)CC[C@]5(C)[C@H]4CC[C@]3(C)[C@H]1[C@@H]2C` [SMILAGENIN] is lower in “collision cross section (N2)” value: 239.4 Å² for the first, 207.7 Å² for the second.

Compared with `NC(=O)NC(=O)Cc1ccccc1` [PHENACEMIDE], `OCCc1ccccc1` [PHENYLETHYL ALCOHOL] is lower in “collision cross section (N2)” value: 128.3 Å² for the first, 121.2 Å² for the second.

Compared with `O=C1c2ccccc2C(=O)C1c1ccccc1` [PHENINDIONE], `O=c1cc(-c2ccccc2)oc2cccc(O)c12` [PRIMULETIN] is higher in “collision cross section (N2)” value: 145.9 Å² for the first, 147.3 Å² for the second.

First: O=C(CCc1ccc(O)cc1)c1c(O)cc(O)cc1O [PHLORETIN]
Second: O=C(/C=C/c1ccc(O)c(O)c1)O[C@H](Cc1ccc(O)c(O)c1)C(=O)O [ROSMARINIC ACID]
The “collision cross section (N2)” value of the first is lower: 160.7 Å² for the first, 169.2 Å² for the second.

Compared with `O=C(O)c1ccccc1C(=O)Nc1ccc(S(=O)(=O)Nc2nccs2)cc1` [PHTHALYLSULFATHIAZOLE], `O=C(O)CCC(=O)Nc1ccc(S(=O)(=O)Nc2nccs2)cc1` [SUCCINYLSULFATHIAZOLE] is lower in “collision cross section (N2)” value: 194.9 Å² for the first, 182.4 Å² for the second.

Going from `CC1=C(C/C=C(\C)CCC[C@H](C)CCC[C@H](C)CCCC(C)C)C(=O)c2ccccc2C1=O` [PHYTONADIONE] to `CCCCCCCCNC(C)C(O)c1ccc(SC(C)C)cc1` (stereo not given) [SULOCTIDIL], the “collision cross section (N2)” value falls from 220 Å² to 197.3 Å².

Compared with `CC(C)NCC(O)COc1cccc2[nH]ccc12` (stereo not given) [PINDOLOL], `CC(C)NCC(O)COc1cccc2ccccc12` (stereo not given) [PROPRANOLOL] is higher in “collision cross section (N2)” value: 157.6 Å² for the first, 161.5 Å² for the second.

First: NC(=O)C1(N2CCCCC2)CCN(CCCC(=O)c2ccc(F)cc2)CC1 [PIPAMPERONE]
Second: O=C1C[C@@H]2OCC=C3CN4CC[C@]56c7ccccc7N1[C@H]5[C@H]2[C@H]3C[C@H]46 [STRYCHNINE]
The “collision cross section (N2)” value of the first is higher: 192.6 Å² for the first, 172.2 Å² for the second.

First: O=C(O)c1ccc2c(c1)OCO2 [PIPERONYLIC ACID]
Second: CC1=CCc2c(cc3oc(C)cc(=O)c3c2O)OC1 [PTAEROXYLIN]
The “collision cross section (N2)” value of the first is lower: 124.5 Å² for the first, 153.5 Å² for the second.

Going from `COc1cc(/C=C/C(=O)N2CCC=CC2=O)cc(OC)c1OC` [PIPLARTINE] to `COc1ncnc(NS(=O)(=O)c2ccc(N)cc2)c1OC` [SULFADOXINE], the “collision cross section (N2)” value falls from 176.1 Å² to 166.2 Å².

First: C[C@]12C=CC(=O)C=C1CC[C@@H]1[C@@H]2[C@@H](O)C[C@@]2(C)[C@H]1CC[C@]2(O)C(=O)CO [PREDNISOLONE]
Second: CC(=O)[C@H]1CC[C@H]2[C@@H]3CCC4=CC(=O)CC[C@]4(C)[C@H]3CC[C@]12C [PROGESTERONE]
The “collision cross section (N2)” value of the first is higher: 183.7 Å² for the first, 177.8 Å² for the second.

Compared with `CC(C)=CCOc1cc2oc(=O)ccc2cc1O` [PRENYLETIN], `COc1cc2c(cc1O)CCNC2C` (stereo not given) [SALSOLINE] is lower in “collision cross section (N2)” value: 153.5 Å² for the first, 145.8 Å² for the second.

First: CCCN(CCC)C(=O)C(CCC(=O)O)NC(=O)c1ccccc1 (stereo not given) [PROGLUMIDE]
Second: CCCN(CCC)CCc1cccc2c1CC(=O)N2 [ROPINIROLE]
The “collision cross section (N2)” value of the first is higher: 181.1 Å² for the first, 162.5 Å² for the second.

Going from `C=Cc1c(C)c2cc3[nH]c(cc4nc(cc5nc(cc1[nH]2)C(C)=C5CCC(=O)O)C(CCC(=O)O)=C4C)c(C)c3C=C` [PROTOPORPHYRIN IX] to `CC(C)=CCCC1(C)C=Cc2c(O)c3c(c(CC=C(C)C)c2O1)OC12C(CC4CC1C(C)(C)OC2(C/C=C(/C)C(=O)O)C4O)C3=O` (stereo not given) [TETRAHYDROGAMBOGIC ACID], the “collision cross section (N2)” value rises from 238.8 Å² to 246.4 Å².

Compared with `CC[C@@]1(O)C[C@H](O[C@H]2C[C@H](N(C)C)[C@H](O)[C@H](C)O2)c2c(cc3c(c2O)C(=O)c2c(O)ccc(O)c2C3=O)[C@H]1C(=O)OC` [PYRROMYCIN], `COc1cc([C@H]2Oc3cc([C@H]4Oc5cc(O)cc(O)c5C(=O)[C@@H]4O)ccc3O[C@@H]2CO)ccc1O` [SILIBININ] is lower in “collision cross section (N2)” value: 233.9 Å² for the first, 213.6 Å² for the second.

First: C=C[C@H]1CN2CC[C@H]1C[C@@H]2[C@@H](OC(=O)OCC)c1ccnc2ccc(OC)cc12 [QUININE ETHYL CARBONATE]
Second: COc1cnc(NS(=O)(=O)c2ccc(N)cc2)nc1 [SULFAMETER]
The “collision cross section (N2)” value of the first is higher: 196.7 Å² for the first, 159 Å² for the second.

First: CN/C(=C\[N+](=O)[O-])NCCSCc1ccc(CN(C)C)o1 [RANITIDINE]
Second: CC(=O)Nc1ccc(S(=O)(=O)Nc2ccc([N+](=O)[O-])cc2)cc1 [SULFANITRAN]
The “collision cross section (N2)” value of the first is lower: 167 Å² for the first, 173.2 Å² for the second.

Compared with `O=C(NC(Cc1cc(=O)[nH]c2ccccc12)C(=O)O)c1ccc(Cl)cc1` (stereo not given) [REBAMIPIDE], `O=C1C=CC(=C(c2ccc(O)cc2)c2ccc(O)cc2)C=C1` [ROSOLIC ACID] is lower in “collision cross section (N2)” value: 185 Å² for the first, 169.1 Å² for the second.

First: Cn1c([N+](=O)[O-])cnc1COC(N)=O [RONIDAZOLE]
Second: Cc1ncc([N+](=O)[O-])n1CC(C)O (stereo not given) [SECNIDAZOLE]
The “collision cross section (N2)” value of the first is higher: 136.9 Å² for the first, 135.2 Å² for the second.

First: C=C[C@H](C1=CC(=O)C=CC1=O)c1ccccc1 [S-DALBERGIONE]
Second: Nc1ccc(S(=O)(=O)Nc2ccnn2-c2ccccc2)cc1 [SULFAPHENAZOLE]
The “collision cross section (N2)” value of the first is lower: 143.6 Å² for the first, 170 Å² for the second.

Compared with `O=C1C=C2C=C[C@@H]3C[C@@]2(O1)[C@H]1CCCCN31` [SECURININE], `CO[C@H]1C[C@H](O[C@@H]2/C(C)=C/C[C@@H]3C[C@@H](C[C@]4(CC[C@H](C)[C@@H](C5CCCCC5)O4)O3)OC(=O)[C@@H]3C=C(C)/C(=N/O)[C@H]4OC/C(=C\C=C\[C@@H]2C)[C@]43O)O[C@@H](C)[C@@H]1O` [SELAMECTIN] is higher in “collision cross section (N2)” value: 146.4 Å² for the first, 293.2 Å² for the second.

Compared with `Nc1ccc(S(=O)(=O)Nc2ncccn2)cc1` [SULFADIAZINE], `CS(=O)(=O)c1ccc([C@@H](O)[C@@H](CO)NC(=O)C(Cl)Cl)cc1` [THIAMPHENICOL] is higher in “collision cross section (N2)” value: 150.9 Å² for the first, 170.7 Å² for the second.

Compared with `c1ccc2[nH]c(-c3cscn3)nc2c1` [THIABENDAZOLE], `Cc1ncc(C[n+]2csc(CCO)c2C)c(N)n1` [THIAMINE] is higher in “collision cross section (N2)” value: 137.7 Å² for the first, 155.9 Å² for the second.

With `CN(C)C(=S)SSC(=S)N(C)C` [THIRAM] the “collision cross section (N2)” value was 148.4 Å².

In the case of `COP(=S)(OC)Oc1ccc(Sc2ccc(OP(=S)(OC)OC)cc2)cc1` [TEMEFOS], the “collision cross section (N2)” value is reported as 203.3 Å² and 187.6 Å².

Same assay, conditions: [M+Na]+; instrument: TW; calibrated with polyalanine and drug standards

Compared with `O=C(CCc1ccc(O)cc1)c1c(O)cc(O)cc1O[C@@H]1O[C@H](CO)[C@@H](O)[C@H](O)[C@H]1O` [PHLORIDZIN], `OCc1ccccc1O[C@@H]1O[C@H](CO)[C@@H](O)[C@H](O)[C@H]1O` [SALICIN] is lower in “collision cross section (N2)” value: 194.4 Å² for the first, 163.2 Å² for the second.

Compared with `C[C@@H]1O[C@@H](Oc2c(-c3ccc(O)c(O)c3)oc3cc(O)cc(O)c3c2=O)[C@H](O)[C@H](O)[C@H]1O` [QUERCITRIN], `COc1cc([C@@H]2c3cc4c(cc3[C@@H](O[C@@H]3O[C@@H]5CO[C@@H](c6cccs6)O[C@H]5[C@H](O)[C@H]3O)[C@H]3COC(=O)[C@H]23)OCO4)cc(OC)c1O` [TENIPOSIDE] is higher in “collision cross section (N2)” value: 205.9 Å² for the first, 266.1 Å² for the second.

In the case of `CO[C@H]1C[C@@H]2CC[C@@H](C)[C@@](O)(O2)C(=O)C(=O)N2CCCC[C@H]2C(=O)O[C@H]([C@H](C)C[C@@H]2CC[C@@H](O)[C@H](OC)C2)CC(=O)[C@H](C)/C=C(\C)[C@@H](O)[C@@H](OC)C(=O)[C@H](C)C[C@H](C)/C=C/C=C/C=C/1C` [SIROLIMUS], the “collision cross section (N2)” value is reported as 311.6 Å².

Same assay, conditions: [M]+; instrument: TW; calibrated with polyalanine and drug standards

With `C[N+]12CC[C@@]34c5ccccc5N5C(=O)CC6OCC=C(C1)[C@H](CC32)[C@@H]6C54` (stereo not given in full) [STRYCHNINE METHIODIDE] the “collision cross section (N2)” value was 175.2 Å².
